Experimental data taken from patent US8609719B2, “Propargylated aminoindans, processes for preparation, and uses thereof” (priority 2006, dated 2013).
Counter-ions that a name gives are not always drawn. Like-named read-outs stand apart in the source and are kept apart here.

Biological target: T1, MAO-A (Rattus norvegicus, UniProt P21396)
T1 construct: from tissue; host or cells: brain, liver and intestine (duodenum) of dosed rats
T1 sequence (P21396 1-526): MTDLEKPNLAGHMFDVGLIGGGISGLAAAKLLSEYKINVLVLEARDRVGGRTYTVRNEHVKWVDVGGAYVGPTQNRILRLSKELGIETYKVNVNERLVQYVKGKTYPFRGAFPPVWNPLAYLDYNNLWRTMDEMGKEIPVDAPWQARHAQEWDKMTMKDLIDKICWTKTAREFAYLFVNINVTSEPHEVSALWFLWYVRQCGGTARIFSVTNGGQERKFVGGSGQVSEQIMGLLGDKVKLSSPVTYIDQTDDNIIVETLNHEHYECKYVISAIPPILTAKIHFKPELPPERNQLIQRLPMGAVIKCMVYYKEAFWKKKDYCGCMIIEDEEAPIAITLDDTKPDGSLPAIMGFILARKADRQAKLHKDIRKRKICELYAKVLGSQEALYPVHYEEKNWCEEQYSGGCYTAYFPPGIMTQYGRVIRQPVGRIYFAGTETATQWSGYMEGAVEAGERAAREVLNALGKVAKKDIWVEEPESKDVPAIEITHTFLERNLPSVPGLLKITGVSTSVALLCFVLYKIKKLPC
Experiment: MAO-A inhibition in rat organs after chronic P.O. administration
Format: in vivo
Details: po, 7 days, 2 hours after last dose; for inhibition at 37.5 µmol/kg: 37.5 μmol/kg P.O. daily; for inhibition at 75 µmol/kg: 75 μmol/kg P.O. daily; for inhibition at 150 µmol/kg: 150 μmol/kg P.O. daily
Description: 30 rats were separated randomly into 5 testing groups of 6 rats each. Group 1 was the control group to which no drug was administered. Ethyl-hydroxymethyl-carbamic acid 3-R-(prop-2-ynylamino)-indan-5-yl ester fumarate (2:1) was administered to groups 2, 3, 4 in dosages of 150, 75, and 37.5 μmol/kg respectively, daily, perorally (“P.O.”) for seven consecutive days. Water was used as a vehicle.
Rats were sacrificed, out of sight of the other rats, 2 hours after the last administration. Brains were removed into Petri dishes on ice, the cerebellums were […], and the brains cut into halves for analysis. Livers and intestines were removed for MAO determination. Organs were homogenated for enzyme inhibition analysis.
The MAO inhibition after administration of ethyl-hydroxymethyl-carbamic acid 3-R-(prop-2-ynylamino)-indan-5-yl ester fumarate (2:1) in various organs is listed in Table 4 calculated in percent relative to the control group.

[1] = read-out: Brain MAO-A inhibition relative to control
[2] = read-out: Duodenum MAO-A inhibition relative to control
[3] = read-out: Liver MAO-A inhibition relative to control

Question: With `C#CCN[C@@H]1CCc2ccc(OC(=O)N(CC)CO)cc21` [R-HCPAI, Ethyl-hydroxymethyl-carbamic acid 3-R-(prop-2-ynylamino)-indan-5-yl ester fumarate (2:1)] as the molecule, how does the inhibition at 37.5 µmol/kg [1] read?
Answer: 8%

Question: What about the inhibition at 37.5 µmol/kg [2] of the same molecule?
Answer: -25%

Question: What about the inhibition at 37.5 µmol/kg [3] of the same molecule?
Answer: 3%

Question: And the inhibition at 75 µmol/kg [1]?
Answer: 41%

Question: And the inhibition at 75 µmol/kg [2]?
Answer: 18%

Question: And the inhibition at 75 µmol/kg [3]?
Answer: 9%

Question: And the inhibition at 150 µmol/kg [1]?
Answer: 72%

Question: And the inhibition at 150 µmol/kg [2]?
Answer: 21%

Question: What about the inhibition at 150 µmol/kg [3] of the same molecule?
Answer: 16%
